Reference: patent US7307044B2, “3-biphenyl-substituted-3-substituted-4-ketolactam and ketolactone and their utilization as pesticide” (Bayer CropScience AG, priority 2001, dated 2007)

How the values were obtained:
Type in all cases: in vivo
Alopecurus [1] = assay: Pre-emergence test (greenhouse); details: 250 g ai/ha, after three weeks
Experimental: (§1) Pre-Emergence Test Solvent: 5 parts by weight of acetone Emulsifier: 1 part by weight of alkylaryl polyglycol ether To produce a suitable preparation of active compound, 1 part by weight of active compound is mixed with the stated amount of solvent, the stated amount of emulsifier is added and the concentrate is diluted with water to the desired concentration. Seeds of the test plants are sewn in normal soil. After about 24 hours, the soil is sprayed with the preparation of active compound such that the particular amounts of active compound desired are applied per unit area. The concentration of the spray liquor is chosen such that the particular amounts of active compound desired are applied in 1000 l of water/ha. After three weeks, the degree of damage to the plants is rated in % damage in comparison to the development of the untreated control. The figures denote: • 0%=no effect (like untreated control) • 100%=total destruction

Amaranthus [2] = assay: Pre-emergence test (greenhouse); details: 250 g ai/ha, after three weeks
Experimental: as §1

Avena fatua [3] = assay: Pre-emergence test (greenhouse); details: 250 g ai/ha, after three weeks
Experimental: as §1

Echinochloa [4] = assay: Pre-emergence test (greenhouse); details: 250 g ai/ha, after three weeks
Experimental: as §1

Setaria [5] = assay: Pre-emergence test (greenhouse); details: 250 g ai/ha, after three weeks
Experimental: as §1

Alopecurus [6] = assay: Post-emergence test (greenhouse); details: after three weeks
Experimental: (§2) Solvent: 5 parts by weight of acetone
(§3) Emulsifier: 1 part by weight of alkylaryl polyglycol ether
(§4) To produce a suitable preparation of active compound, 1 part by weight of active compound is mixed with the stated amount of solvent, the stated amount of emulsifier is added and the concentrate is diluted with water to the desired concentration.
(§5) Test plants of a height of 5-15 cm are sprayed with the preparation of active compound such that the particular amounts of active compound desired are applied per unit area. The concentration of the spray liquor is chosen such that the particular amounts of active compound desired are applied in 1000 l of water/ha.
(§6) After three weeks, the degree of damage to the plants is rated in % damage in comparison to the development of the untreated control.
(§7) The figures denote: • 0%=no effect (like untreated control) • 100%=total destruction

Avena fatua [7] = assay: Post-emergence test (greenhouse); details: after three weeks
Experimental: as §2, §3, §4, §5, §6, §7

Echinochloa [8] = assay: Post-emergence test (greenhouse); details: after three weeks
Experimental: as §2, §3, §4, §5, §6, §7

Setaria [9] = assay: Post-emergence test (greenhouse); details: after three weeks
Experimental: as §2, §3, §4, §5, §6, §7

Sinapis = assay: Post-emergence test (greenhouse); details: 250 g ai/ha, after three weeks
Experimental: as §2, §3, §4, §5, §6, §7

Amaranthus [10] = assay: Post-emergence test (greenhouse); details: 250 g ai/ha, after three weeks
Experimental: as §2, §3, §4, §5, §6, §7

[11] = system: green peach aphid (Myzus persicae); assay: Myzus test; details: 500 ppm, cabbage leaves dipped
Experimental: Myzus Test Solvent: 7 parts by weight of dimethylformamide Emulsifier: 2 parts by weight of alkylaryl polyglycol ether To produce a suitable preparation of active compound, 1 part by weight of active compound is mixed with the stated amounts of solvent and emulsifier, and the concentrate is diluted with emulsifier-containing water to the desired concentration. Cabbage leaves (Brassica oleracea) which are heavily infested by the green peach aphid (Myzus persicae) are treated by being dipped into the preparation of active compound of the desired concentration. After the desired period of time, the kill in % is determined. 100% means that all aphids have been killed; 0% means that none of the aphids have been killed.

[12] = system: larvae of the mustard beetle (Phaedon cochleariae); assay: Phaedon larvae test; details: 500 ppm, cabbage leaves dipped
Experimental: (§8) Phaedon Larvae Test Solvent: 7 parts by weight of dimethylformamide Emulsifier: 2 parts by weight of alkylaryl polyglycol ether To produce a suitable preparation of active compound, 1 part by weight of active compound is mixed with the stated amounts of solvent and emulsifier, and the concentrate is diluted with emulsifier-containing water to the desired concentration. Cabbage leaves (Brassica oleracea) are treated by being dipped into the preparation of active compound of the desired concentration and are populated with larvae of the mustard beetle (Phaedon cochleariae) while the leaves are still moist. After the desired period of time, the kill in % is determined. 100% means that all beetle larvae have been killed; 0% means that none of the beetle larvae have been killed.

[13] = system: caterpillars of the armyworm (Spodoptera frugiperda); assay: Spodoptera frugiperda test; details: 500 ppm, cabbage leaves dipped
Experimental: as §8, with “Spodoptera frugiperda” for “Phaedon Larvae”, “caterpillars” for “larvae”, “armyworm (Spodoptera frugiperda)” for “mustard beetle (Phaedon cochleariae)”, “caterpillars” for “beetle larvae”

[14] = system: greenhouse red spider mite (Tetranychus urticae); assay: Tetranychus test (OP-resistent/dip treatment); details: 100 ppm, bean plants dipped
Experimental: Tetranychus Test (OP-Resistent/Dip Treatment)
Solvent: 7 parts by weight of dimethylformamide
Emulsifier: 2 parts by weight of alkylaryl polyglycol ether
To produce a suitable preparation of active compound, 1 part by weight of active compound is mixed with the stated amounts of solvent and emulsifier, and the concentrate is diluted with emulsifier-containing water to the desired concentration.
Bean plants (Phaseolus vulgaris) which are heavily infested by all stages of the greenhouse red spider mite (Tetranychus urticae) are dipped into a preparation of active compound of the desired concentration.
After the desired period of time, the effect in % is determined. 100% means that all spider mites have been killed; 0% means that none of the spider mites have been killed.

Digitaria = assay: Post-emergence test (greenhouse); details: 125 g ai/ha, after three weeks
Experimental: as §2, §3, §4, §5, §6, §7

Sugar beet = assay: Post-emergence test (greenhouse); details: 125 g ai/ha, after three weeks
Experimental: as §2, §3, §4, §5, §6, §7

Plasmopara viticola = assay: Plasmopara test (grapevine)/protective; details: protective, evaluation 6 days after inoculation
Experimental: Plasmopara Test (Grapevine)/Protective Solvents: 24.5 parts by weight of acetone • 24.5 parts by weight of dimethylacetamide Emulsifier: 1.0 part by weight of alkylaryl polyglycol ether To produce a suitable preparation of active compound, 1 part by weight of active compound is mixed with the stated amounts of solvent and emulsifier, and the concentrate is diluted with water to the desired concentration. To test for protective activity, young plants are sprayed with the preparation of active compound at the stated application rate. After the spray coating has dried on, the plants are inoculated with an aqueous spore suspension of Plasmopara viticola and then remain in an incubation cabin at 20° C. and 100% relative atmospheric humidity for 1 day. The plants are then placed in a greenhouse at about 21° C. and about 90% atmospheric humidity for 4 days. The plants are then moistened and placed in an incubation cabin for 1 day.

[15] = system: apple scab pathogen Venturia inaequalis; assay: Venturia test (apple)/protective; details: protective, evaluation 10 days after inoculation
Experimental: Venturia Test (Apple)/Protective Solvents: 24.5 parts by weight of acetone • 24.5 parts by weight of dimethylacetamide Emulsifier: 1.0 part by weight of alkylaryl polyglycol ether To produce a suitable preparation of active compound, 1 part by weight of active compound is mixed with the stated amounts of solvent and emulsifier, and the concentrate is diluted with water to the desired concentration. To test for protective activity, young plants are sprayed with the preparation of active compound at the stated application rate. After the spray coating has dried on, the plants are inoculated with an aqueous conidia suspension of the apple scab pathogen Venturia inaequalis and then remain in an incubation cabin at about 20° C. and 100% relative atmospheric humidity for 1 day. The plants are then placed in a greenhouse at about 21° C. and a relative atmospheric humidity of about 90%.

SMILES: COC1CCC2(CC1)NC(=O)C(Cl)(c1c(C)cc(-c3cccc(Cl)c3)cc1C)C2=O (stereo not shown) [Ex. I-1-4]
- degree of damage to the plants in % damage (Alopecurus [1]): 95%
- degree of damage to the plants in % damage (Amaranthus [2]): 90%
- degree of damage to the plants in % damage (Avena fatua [3]): 90%
- degree of damage to the plants in % damage (Echinochloa [4]): 100%
- degree of damage to the plants in % damage (Setaria [5]): 100%
- degree of damage to the plants in % damage (Alopecurus [6]; 250 g ai/ha): 100%
- degree of damage to the plants in % damage (Avena fatua [7]; 250 g ai/ha): 100%
- degree of damage to the plants in % damage (Echinochloa [8]; 250 g ai/ha): 100%
- degree of damage to the plants in % damage (Setaria [9]; 250 g ai/ha): 100%
- degree of damage to the plants in % damage (Sinapis): 70%

SMILES: CCOC1CCC2(CC1)NC(=O)C(Cl)(c1c(C)cc(-c3ccc(Cl)cc3)cc1CC)C2=O (stereo not shown) [Ex. I-1-10]
- degree of damage to the plants in % damage (Alopecurus [6]; 250 g ai/ha): 100%
- degree of damage to the plants in % damage (Amaranthus [10]): 80%
- degree of damage to the plants in % damage (Avena fatua [7]; 250 g ai/ha): 100%
- degree of damage to the plants in % damage (Echinochloa [8]; 250 g ai/ha): 100%
- degree of damage to the plants in % damage (Setaria [9]; 250 g ai/ha): 100%
- degree of damage to the plants in % damage (Sinapis): 80%

SMILES: Cc1ccc(-c2ccc(Cl)cc2)cc1C1(Cl)C(=O)NC(C)(C)C1=O (stereo not shown) [Ex. I-1-1]
- Kill rate in % after 6 d [11]: 95%
- Kill rate in % after 7 d [12]: 100%
- Kill rate in % after 7 d [13]: 100%
- Kill rate in % after 7 d [14]: 100%
- degree of damage to the plants in % damage (Alopecurus [6]; 125 g ai/ha): 95%
- degree of damage to the plants in % damage (Avena fatua [7]; 125 g ai/ha): 100%
- degree of damage to the plants in % damage (Digitaria): 90%
- degree of damage to the plants in % damage (Echinochloa [8]; 125 g ai/ha): 100%
- degree of damage to the plants in % damage (Setaria [9]; 125 g ai/ha): 100%
- degree of damage to the plants in % damage (Sugar beet): 0%
- Emax at 100 g/ha (Plasmopara viticola; Plasmopara viticola, 144 h, read-out: % efficacy): 100%
- Emax at 100 g/ha ([15]; Venturia inaequalis, 240 h, read-out: % efficacy): 97%

SMILES: Cc1cc(-c2ccc(Cl)cc2)cc(Cl)c1C1(Cl)C(=O)NC2(CCCOC2)C1=O (stereo not shown) [Ex. I-1-8]
- Kill rate in % after 7 d [14]: 98%
- degree of damage to the plants in % damage (Alopecurus [6]; 250 g ai/ha): 95%
- degree of damage to the plants in % damage (Amaranthus [10]): 70%
- degree of damage to the plants in % damage (Avena fatua [7]; 250 g ai/ha): 95%
- degree of damage to the plants in % damage (Echinochloa [8]; 250 g ai/ha): 100%
- degree of damage to the plants in % damage (Setaria [9]; 250 g ai/ha): 100%
- degree of damage to the plants in % damage (Sinapis): 80%

SMILES: CC1(C)NC(=O)C(Cl)(c2cc(-c3ccc(Cl)cc3)ccc2Cl)C1=O (stereo not shown) [Ex. I-1-2]
- Kill rate in % after 7 d [12]: 100%
- Kill rate in % after 7 d [13]: 100%
- Kill rate in % after 7 d [14]: 100%
- degree of damage to the plants in % damage (Alopecurus [6]; 125 g ai/ha): 90%
- degree of damage to the plants in % damage (Avena fatua [7]; 125 g ai/ha): 95%
- degree of damage to the plants in % damage (Digitaria): 100%
- degree of damage to the plants in % damage (Echinochloa [8]; 125 g ai/ha): 100%
- degree of damage to the plants in % damage (Setaria [9]; 125 g ai/ha): 90%
- degree of damage to the plants in % damage (Sugar beet): 0%
- % efficacy (Plasmopara viticola; 100 g/ha): 100%
- % efficacy ([15]; 100 g/ha): 96%
